Test results reported in patent US9315451B2, “Tetracycline compounds” (priority 2009, dated 2016).
Where two headings read alike, the source gives them in different places.

How the values were obtained:
Format in all cases: in vivo
[1] = test system: S. aureus Smith (ATCC 13709); experiment: Mouse systemic infection (septicemia) model, S. aureus Smith; conditions: Staphylococcus aureus, CD-1 female mice; for responders at 3 mg/kg: ATCC13709, iv, IV 3 mg/kg one hour post infection, read-out: SA Smith septicemia survival IV (3 mg/kg); for responders at 3 mg/kg / responders at 30 mg/kg: 48 h, survival at 48 hours; for responders at 30 mg/kg: ATCC13709, po, PO 30 mg/kg one hour post infection, read-out: SA Smith septicemia survival PO (30 mg/kg); for ED50: ATCC13709, dose that prevents 50% of the mice from death, 48 hours
Procedure: Mouse Systemic Infection Protocol-S. aureus Smith Septicemia
Compounds were screened for antibacterial activity in vivo in a mouse systemic infection (septicemia) model. In the model, CD-1 female mice (18-22 grams) were injected IP with a S. aureus Smith (ATCC 13709) inoculum that results in 0% survival within 24 to 48 hours. The bacterial dose required to achieve this effect was previously established through virulence studies. At one hour post infection, mice received either […] IV or […] PO. Typically, six mice were treated per dose group. Animal survival was assessed and recorded for 48 hours. Percent survival at 48 hours was recorded and PD50 (mg/kg) was determined for each compound tested.

[2] = test system: K. pneumoniae ESBL Isolate KP453; experiment: Murine kidney infection model, K. pneumoniae ESBL isolate KP453; conditions: Klebsiella pneumoniae, po, 36 h, BALB/c mice, PO 50 mg/kg at 9 and 24 hours post infection; read-out: KP453 ESBL UTI PO, log10 reduction in CFUs in the kidney versus untreated controls
Procedure: (§1) Kidney Infection Models for Uropathogenic E. coli EC200 and K. pneumoniae ESBL Isolate KP453
Compounds were also tested in BALB/c murine kidney infection model challenged with levofloxacin-resistant, ESBL^+ strain KP453 via intravenous injection with 2% carageenen. At 9 and 24 hours post infection mice were treated orally with 50 mg/kg of test compound. For IV administration, test compounds were dosed at 20 mg/kg. At 36 hours following initiation of treatment, mice were euthanized and bacterial reduction in the kidney was quantified by plating homogenates. Results are reported in Table D as log10 reduction in colony forming units (CFUs) in the kidney versus untreated controls (receiving no test compound).

[3] = test system: Uropathogenic E. coli EC200; experiment: Murine kidney infection model, uropathogenic E. coli EC200; conditions: Escherichia coli, po, 36 h, BALB/c mice, read-out: EC200 UTI PO, log10 reduction in CFUs in the kidney versus untreated controls; for log reduction at 2 mg/kg: PO 2 mg/kg at 12 and 24 hours post infection
Procedure: as §1
Compounds were tested in a BALB/c murine kidney infection model challenged with tetracycline-resistant E. coli strain uropathogenic […] via intravenous injection. […] For IV administration test compound was dosed at 3 mg/kg. Thirty-six hours following initiation of treatment, mice were euthanized and bacterial reduction in the kidney was quantified by plating kidney homogenates. Results are reported in Table D as log10 reduction in colony forming units (CFUs) in the kidney versus untreated controls (receiving no test compound).

[4] = Pharmacokinetic studies in rats; conditions: rat, plasma, male Sprague Dawley rats, fasted; for clearance: read-out: Cl, IV Rat PK; for bioavailability: oral 10 mg/kg vs IV 1 mg/kg, read-out: % F (oral bioavailability), Oral Rat PK; for Cmax: read-out: Cmax, IV Rat PK
Procedure: Pharmacokinetic Studies in Rats Test compounds were evaluated in fasted (no food for 18 hours prior to dosing) male Sprague Dawley rats (3 animals per group) by administration of 1 mg/kg intravenously into the jugular vein and […] by oral gavage. Ten plasma samples were drawn for each dosing route up to 24 hours into heparin-coated vacutainer tubes. The plasma concentrations of the test compounds were quantified by LC/MS/MS using an internal standards. WinNONLIN was used to determine PK parameters ±standard deviation (AUC, Cmax, CL, Vss and % oral bioavailabilty (% F) and are set forth in Table F.

[5] = IV, read-out: SA Smith septicemia PD50 IV
[6] = PO, read-out: SA Smith septicemia PD50 PO
[7] = IV 1 mg/kg, read-out: AUC, IV Rat PK
[8] = oral gavage 10 mg/kg, read-out: AUC, Oral Rat PK

SMILES	responders at 3 mg/kg [1] [%]	responders at 30 mg/kg [1] [%]	ED50 [1, 5] [mg/kg]	ED50 [1, 6] [mg/kg]	log reduction at 50 mg/kg [2]	log reduction at 2 mg/kg [3]	clearance ([4]; IV 1 mg/kg) [mL/min/kg]	bioavailability [4] [%]	AUC [4, 7] [ng·h/mL]	Cmax ([4]; IV 1 mg/kg) [ng/mL]	AUC [4, 8] [ng·h/mL]	log reduction at 12 mg/kg ([3]; PO @ 12 mpk)	log reduction at 3 mg/kg ([3]; PO @ 3 mpk)
CN(C)[C@@H]1C(O)=C(C(N)=O)C(=O)[C@@]2(O)C(O)=C3C(=O)c4c(O)cc(CN5CCCC5(C)C)c(F)c4C[C@H]3C[C@@H]12 [Compound S2-4-12]	100	100	0.69	2.1	2.15	2.51	21.3	14.6	754	126	1160	–	–
CC1CCN(Cc2cc(O)c3c(c2F)C[C@H]2C[C@H]4[C@H](N(C)C)C(O)=C(C(N)=O)C(=O)[C@@]4(O)C(O)=C2C3=O)CC1 [Compound S2-4-19]	100	83	1	14.3	1.27	1.91	5	14.9	3320	518	4980	–	–
CN(C)[C@@H]1C(O)=C(C(N)=O)C(=O)[C@@]2(O)C(O)=C3C(=O)c4c(O)cc(CN(C)C(C)(C)C5CC5)c(F)c4C[C@H]3C[C@@H]12 [Compound S2-4-29]	100	100	1	3.5	–	–	26.5	25.4	616	112	1600	–	–
C[C@H]1CCCCN1Cc1cc(O)c2c(c1F)C[C@H]1C[C@H]3[C@H](N(C)C)C(O)=C(C(N)=O)C(=O)[C@@]3(O)C(O)=C1C2=O [Compound S2-4-65]	100	100	–	8.4	2.28	3.18	–	–	–	–	–	4.61	–
CN(C)[C@@H]1C(O)=C(C(N)=O)C(=O)[C@@]2(O)C(O)=C3C(=O)c4c(O)cc(CN5CCCC5)c(F)c4C[C@H]3C[C@@H]12 [Compound S3-5-5]	100	100	–	–	1.01	2.26	–	–	–	–	–	–	–
CN(C)[C@@H]1C(O)=C(C(N)=O)C(=O)[C@@]2(O)C(O)=C3C(=O)c4c(O)cc(CN5CCCC5(C)C)c(Cl)c4C[C@H]3C[C@@H]12 [Compound S15-13-4]	100	100	–	6.2	1.69	3.17	–	–	–	–	–	–	–
CN(C)[C@@H]1C(O)=C(C(N)=O)C(=O)[C@@]2(O)C(O)=C3C(=O)c4c(O)cc(CN(C)C(C)(C)C)c(Cl)c4C[C@H]3C[C@@H]12 [Compound S15-13-15]	100	100	–	3.5	1.45	2.82	15.4	21	1100	154	2260	–	–
CCN(Cc1cc(O)c2c(c1Cl)C[C@H]1C[C@H]3[C@H](N(C)C)C(O)=C(C(N)=O)C(=O)[C@@]3(O)C(O)=C1C2=O)[C@H](C)C(C)(C)C [Compound S15-13-122]	–	–	–	–	1.84	2.64	–	–	–	–	–	–	–
CN(C)[C@@H]1C(O)=C(C(N)=O)C(=O)[C@@]2(O)C(O)=C3C(=O)c4c(O)cc(CN5CCCC5)c(Cl)c4C[C@H]3C[C@@H]12 [Compound S15-13-187]	100	100	–	–	–	–	–	–	–	–	–	–	3.46
C[C@H]1CCCN1Cc1cc(O)c2c(c1Cl)C[C@H]1C[C@H]3[C@H](N(C)C)C(O)=C(C(N)=O)C(=O)[C@@]3(O)C(O)=C1C2=O [Compound S15-13-194]	100	100	–	–	2.18	3.44	–	–	–	–	–	–	–
COc1c(CN2CCCC[C@@H]2C)cc(O)c2c1C[C@H]1C[C@H]3[C@H](N(C)C)C(O)=C(C(N)=O)C(=O)[C@@]3(O)C(O)=C1C2=O [Compound S24-9-17]	100	100	–	–	2.41	2.61	–	–	–	–	–	–	–
COc1c(CN2[C@H](C)CCC[C@@H]2C)cc(O)c2c1C[C@H]1C[C@H]3[C@H](N(C)C)C(O)=C(C(N)=O)C(=O)[C@@]3(O)C(O)=C1C2=O [Compound S24-9-25]	100	100	–	–	1.71	2.99	–	–	–	–	–	–	–
CN(C)[C@@H]1C(O)=C(C(N)=O)C(=O)[C@@]2(O)C(O)=C3C(=O)c4c(O)cc(CN5CCCC5)c(C(F)(F)F)c4C[C@H]3C[C@@H]12 [Compound S25-11-1]	100	100	–	–	1.84	3.97	–	–	–	–	–	–	–
CN(C)[C@@H]1C(O)=C(C(N)=O)C(=O)[C@@]2(O)C(O)=C3C(=O)c4c(O)cc(CN5CCCCC5)c(C(F)(F)F)c4C[C@H]3C[C@@H]12 [Compound S25-11-68]	50	83	–	–	–	–	–	–	–	–	–	–	–
CC(C)[C@@H](C)NCc1cc(O)c2c(c1C(F)(F)F)C[C@H]1C[C@H]3[C@H](N(C)C)C(O)=C(C(N)=O)C(=O)[C@@]3(O)C(O)=C1C2=O [Compound S25-11-171]	83	17	–	–	–	–	–	–	–	–	–	–	–
CN(C)[C@@H]1C(O)=C(C(N)=O)C(=O)[C@@]2(O)C(O)=C3C(=O)c4c(O)cc(C(C)(C)N(C)CC5CCCC5)c(F)c4C[C@H]3C[C@@H]12 [Compound S27-9-5]	83	67	–	–	–	–	–	–	–	–	–	–	–
CC(C)CN(C)C(C)(C)c1cc(O)c2c(c1Cl)C[C@H]1C[C@H]3[C@H](N(C)C)C(O)=C(C(N)=O)C(=O)[C@@]3(O)C(O)=C1C2=O [Compound S27-9-7]	17	33	–	–	–	–	–	–	–	–	–	–	–
